Reference: patent US11945819B1, “Dimethyl 7-bromo-1-(4-substituted benzoyl)pyrrolo[1,2-a]quinoline-2,3-dicarboxylates as anti-inflammatory agents” (KING FAISAL UNIVERSITY, priority 2023, dated 2024)

Assays:
bovine serum albumin = bovine serum albumin (Bos taurus, UniProt P02769); assay: In vitro anti-inflammatory activity by inhibition of bovine serum albumin denaturation; type: biochemical; conditions: for % Inhibition at 10 μg: inhibition of heat-induced albumin denaturation (60° C., 10 min), turbidity, average of triplicate; for inhibition rate: at 10 μg, bovine serum albumin denaturation method
Protocol: Accordingly, in an embodiment of the present subject matter, the dimethyl 7-bromo-1-(4- substituted benzoyl)pyrrolo[1,2-α]quinoline-2,3-dicarboxylates derivatives, or the dimethyl 7-bromo-1-(4-substituted benzoyl)pyrrolo[1,2-α]quinoline-2,3-dicarboxylates, as described herein were screened for their in vitro anti-inflammatory activity by inhibiting the bovine serum albumin denaturation method. The test compound is dissolved in a minimum amount of dimethyl sulphoxide (DMSO) and diluted with phosphate buffer. The final concentration of DMF in all solutions is less than 2.5%. Test solutions containing different concentrations of the drug is mixed with albumin solution in phosphate buffer and incubated at about 27-37° C.±10° C. for about at least 15 min. Denaturation is induced by keeping the reaction mixture at about 60° C.±10° C. in a water bath for at least about 10 min. After cooling, the turbidity is measured at about 210-660 nm (Shimadzu Spectrometer). Percentage inhibition of denaturation is calculated from a control where no drug was added. The percentage of inhibition is calculated from the following formula. The standard solution is also prepared as similar to that of the test solution. Ibuprofen can be used as a standard.
The newly synthesized compounds were screened for their in-vitro anti-inflammatory activity by inhibiting the bovine serum albumin denaturation method. The test compounds were dissolved in a minimum dimethyl sulphoxide (DMSO) and diluted with phosphate buffer (0.2M, pH 7.4). The final concentration of DMF in all solutions was less than 2.5%. Test solution (1 mL) containing different concentrations of the drug was mixed with 1 mL of 1 mm albumin solution in phosphate buffer and incubated at 27-37° C.±10° C. for 15 min. Denaturation was induced by keeping the reaction mixture at 60° C.±10° C. in a water bath for 10 min. After cooling, the turbidity was measured at 210-660 nm (Shimadzu Spectrometer). Percentage inhibition of denaturation was calculated from control where no drug was added. Each experiment was done in triplicate, and the average was taken. The percentage of inhibition is calculated from the following formula. The standard solution was also prepared as similar to that of the test solution. Ibuprofen was used as a standard.
The inhibition was calculated using the following equation: % Inhibition=100 (1−Vt/Vc) where, Vt=Drug absorbance of triplicate average Vc=Control absorbance of triplicate average

bovine serum albumin, sequence (P02769 25-607): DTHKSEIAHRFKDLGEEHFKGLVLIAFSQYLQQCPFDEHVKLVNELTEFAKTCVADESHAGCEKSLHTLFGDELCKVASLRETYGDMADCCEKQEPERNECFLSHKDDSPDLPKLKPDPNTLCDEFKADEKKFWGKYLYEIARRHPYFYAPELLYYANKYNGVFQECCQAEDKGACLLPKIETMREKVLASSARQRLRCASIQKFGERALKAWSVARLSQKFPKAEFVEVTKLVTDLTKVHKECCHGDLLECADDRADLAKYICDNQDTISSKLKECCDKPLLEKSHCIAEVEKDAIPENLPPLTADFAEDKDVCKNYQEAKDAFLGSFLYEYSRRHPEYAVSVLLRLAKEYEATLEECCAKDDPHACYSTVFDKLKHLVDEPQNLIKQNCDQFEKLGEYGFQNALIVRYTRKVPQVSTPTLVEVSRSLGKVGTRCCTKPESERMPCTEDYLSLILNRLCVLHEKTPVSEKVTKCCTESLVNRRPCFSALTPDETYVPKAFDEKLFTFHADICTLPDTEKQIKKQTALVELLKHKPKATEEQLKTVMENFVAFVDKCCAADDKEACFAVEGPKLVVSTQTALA

melting point [°C]	% Inhibition at 10 μg (bovine serum albumin) [%]	inhibition rate (bovine serum albumin) [%]	Structure (SMILES)
169 to 171	49.75	49.75	COC(=O)c1c(C(=O)OC)c2ccc3cc(Br)ccc3n2c1C(=O)c1ccc(F)cc1 [Compound 3a, dimethyl 7-bromo-1-(4-fluorobenzoyl)pyrrolo[1,2-α]quinoline-2,3-dicarboxylate]
210 to 212	42.52	42.52	COC(=O)c1c(C(=O)OC)c2ccc3cc(Br)ccc3n2c1C(=O)c1ccc(Cl)cc1 [Compound 3b, dimethyl 7-bromo-1-(4-chlorobenzoyl)pyrrolo[1,2-α]quinoline-2,3-dicarboxylate]
170 to 172	54.35	54.35	COC(=O)c1c(C(=O)OC)c2ccc3cc(Br)ccc3n2c1C(=O)c1ccc(Br)cc1 [Compound 3c, dimethyl 7-bromo-1-(4-bromobenzoyl)pyrrolo[1,2-α]quinoline-2,3-dicarboxylate]
